A short description of data set [1]: Cytotoxicity against human HepG2 cells cultured as C3a spheroids assessed as reduction in cell viability. The format is toxicity, cell-based.
Data set [2] concerns the target T1, Relaxin receptor 1 (Homo sapiens, UniProt Q9HBX9).
T1 sequence (Q9HBX9 whole entry): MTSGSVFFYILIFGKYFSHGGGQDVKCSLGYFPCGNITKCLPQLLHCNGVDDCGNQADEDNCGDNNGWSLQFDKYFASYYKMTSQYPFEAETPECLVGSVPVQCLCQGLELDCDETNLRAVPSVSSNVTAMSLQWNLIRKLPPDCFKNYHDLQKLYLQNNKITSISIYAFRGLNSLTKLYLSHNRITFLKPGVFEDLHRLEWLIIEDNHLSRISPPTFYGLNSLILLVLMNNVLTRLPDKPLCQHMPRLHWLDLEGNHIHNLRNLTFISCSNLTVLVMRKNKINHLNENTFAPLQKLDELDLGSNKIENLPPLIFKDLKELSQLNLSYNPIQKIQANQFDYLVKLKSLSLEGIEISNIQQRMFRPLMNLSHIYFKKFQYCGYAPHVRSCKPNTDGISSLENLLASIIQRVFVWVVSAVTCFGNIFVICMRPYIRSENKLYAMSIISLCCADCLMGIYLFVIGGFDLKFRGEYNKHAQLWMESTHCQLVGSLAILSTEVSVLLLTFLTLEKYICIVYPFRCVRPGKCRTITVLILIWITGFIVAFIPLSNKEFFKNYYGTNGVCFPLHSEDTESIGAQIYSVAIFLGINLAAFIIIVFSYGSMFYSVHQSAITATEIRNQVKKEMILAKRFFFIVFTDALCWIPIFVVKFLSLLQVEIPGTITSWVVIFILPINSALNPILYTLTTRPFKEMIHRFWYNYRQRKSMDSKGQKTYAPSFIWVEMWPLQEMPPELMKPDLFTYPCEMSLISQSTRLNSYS
In words: Agonist activity at human RXFP1 expressed in T-Rex-CHO-K1 cells assessed as stimulation of cAMP production by measuring unbound concentration incubated for 45 mins by HTRF assay.

For data set [3], the target named is T2, Relaxin receptor 1 (Rattus norvegicus, UniProt Q6R6I6).
T2 sequence (Q6R6I6 whole entry): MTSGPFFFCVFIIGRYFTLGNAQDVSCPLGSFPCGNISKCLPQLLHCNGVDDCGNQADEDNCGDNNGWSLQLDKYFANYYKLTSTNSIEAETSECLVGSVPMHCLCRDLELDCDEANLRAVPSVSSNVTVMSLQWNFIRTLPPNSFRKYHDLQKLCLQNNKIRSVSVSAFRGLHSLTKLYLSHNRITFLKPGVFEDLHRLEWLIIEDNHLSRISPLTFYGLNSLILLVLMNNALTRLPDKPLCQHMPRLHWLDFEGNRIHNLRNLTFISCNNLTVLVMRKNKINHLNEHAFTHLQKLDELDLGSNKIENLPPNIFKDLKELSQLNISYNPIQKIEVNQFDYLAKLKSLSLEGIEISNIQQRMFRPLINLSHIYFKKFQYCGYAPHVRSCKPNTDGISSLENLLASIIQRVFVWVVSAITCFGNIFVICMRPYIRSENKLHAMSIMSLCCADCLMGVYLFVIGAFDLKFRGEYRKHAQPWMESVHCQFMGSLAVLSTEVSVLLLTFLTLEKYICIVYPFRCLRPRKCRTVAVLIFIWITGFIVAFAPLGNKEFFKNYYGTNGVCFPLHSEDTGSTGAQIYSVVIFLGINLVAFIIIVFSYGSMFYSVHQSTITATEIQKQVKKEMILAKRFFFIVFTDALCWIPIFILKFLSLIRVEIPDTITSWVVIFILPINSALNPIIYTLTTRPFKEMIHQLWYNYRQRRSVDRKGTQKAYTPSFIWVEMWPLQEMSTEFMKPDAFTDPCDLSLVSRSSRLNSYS
In words: Agonist activity at rat RXFP1 expressed in T-Rex-CHO-K1 cells assessed as stimulation of cAMP production incubated for 60 mins by HTRF assay. The format is functional, cell-based.

Data set [4] is described as follows: Cytotoxicity against human HepG2 cells cultured under glucose condition assessed as reduction in cell viability. It counts as toxicity, cell-based.
For data set [5], the target named is Sodium channel protein type 5 subunit alpha (Homo sapiens, UniProt Q14524). Briefly: Inhibition of human Nav1.5 by automated electrophysiology recording. It counts as toxicity.
Chain of Sodium channel protein type 5 subunit alpha (Q14524 whole entry): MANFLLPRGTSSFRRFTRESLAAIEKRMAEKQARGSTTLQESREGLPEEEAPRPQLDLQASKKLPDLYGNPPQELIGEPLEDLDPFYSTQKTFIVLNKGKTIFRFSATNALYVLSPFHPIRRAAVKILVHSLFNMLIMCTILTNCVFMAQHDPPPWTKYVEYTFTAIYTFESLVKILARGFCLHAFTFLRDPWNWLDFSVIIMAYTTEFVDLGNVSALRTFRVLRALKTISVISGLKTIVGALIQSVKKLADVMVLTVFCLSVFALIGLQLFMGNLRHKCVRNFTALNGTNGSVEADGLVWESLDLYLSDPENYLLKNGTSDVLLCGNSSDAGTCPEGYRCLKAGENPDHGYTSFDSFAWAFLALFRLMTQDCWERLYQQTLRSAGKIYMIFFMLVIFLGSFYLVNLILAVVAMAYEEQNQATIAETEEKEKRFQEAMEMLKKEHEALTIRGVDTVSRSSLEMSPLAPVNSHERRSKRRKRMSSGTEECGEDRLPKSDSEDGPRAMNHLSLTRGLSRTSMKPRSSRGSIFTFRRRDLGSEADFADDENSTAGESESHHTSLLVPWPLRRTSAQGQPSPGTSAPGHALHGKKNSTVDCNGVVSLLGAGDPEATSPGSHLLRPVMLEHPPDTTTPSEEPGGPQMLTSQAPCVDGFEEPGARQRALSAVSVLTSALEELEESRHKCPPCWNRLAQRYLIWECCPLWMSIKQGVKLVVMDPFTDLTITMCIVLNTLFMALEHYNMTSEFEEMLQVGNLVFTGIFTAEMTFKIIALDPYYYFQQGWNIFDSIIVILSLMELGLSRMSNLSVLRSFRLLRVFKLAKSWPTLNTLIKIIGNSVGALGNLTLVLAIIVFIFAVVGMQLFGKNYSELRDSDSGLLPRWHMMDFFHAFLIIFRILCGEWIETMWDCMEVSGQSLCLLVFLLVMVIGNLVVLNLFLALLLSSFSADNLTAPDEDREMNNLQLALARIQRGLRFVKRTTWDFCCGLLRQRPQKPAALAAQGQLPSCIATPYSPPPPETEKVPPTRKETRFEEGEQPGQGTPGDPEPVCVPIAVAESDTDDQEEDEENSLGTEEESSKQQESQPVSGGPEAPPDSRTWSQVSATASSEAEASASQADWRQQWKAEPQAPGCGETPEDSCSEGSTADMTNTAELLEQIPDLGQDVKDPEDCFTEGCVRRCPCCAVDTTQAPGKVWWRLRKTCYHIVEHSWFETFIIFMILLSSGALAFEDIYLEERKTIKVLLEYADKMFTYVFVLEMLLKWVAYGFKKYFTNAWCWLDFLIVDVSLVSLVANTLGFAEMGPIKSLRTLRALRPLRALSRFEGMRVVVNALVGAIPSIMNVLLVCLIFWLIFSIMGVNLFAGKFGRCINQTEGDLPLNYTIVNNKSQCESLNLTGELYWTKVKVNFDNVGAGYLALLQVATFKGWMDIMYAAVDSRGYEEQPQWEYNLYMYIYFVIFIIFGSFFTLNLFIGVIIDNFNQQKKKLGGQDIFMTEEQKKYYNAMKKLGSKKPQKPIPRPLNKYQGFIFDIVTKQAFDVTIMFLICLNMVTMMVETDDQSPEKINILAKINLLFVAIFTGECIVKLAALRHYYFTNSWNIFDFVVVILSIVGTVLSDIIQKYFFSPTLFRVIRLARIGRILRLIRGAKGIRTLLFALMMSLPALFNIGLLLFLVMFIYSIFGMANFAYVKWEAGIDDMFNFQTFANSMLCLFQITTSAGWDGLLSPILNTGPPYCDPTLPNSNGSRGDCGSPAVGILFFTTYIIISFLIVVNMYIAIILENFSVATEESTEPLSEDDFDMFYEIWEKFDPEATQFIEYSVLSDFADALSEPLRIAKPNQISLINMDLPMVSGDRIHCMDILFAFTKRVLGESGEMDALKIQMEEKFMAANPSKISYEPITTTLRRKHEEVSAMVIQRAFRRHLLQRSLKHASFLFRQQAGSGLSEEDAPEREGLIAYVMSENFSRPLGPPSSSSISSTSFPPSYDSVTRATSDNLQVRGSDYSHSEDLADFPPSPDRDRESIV
In data set [6] the target is Lutropin-choriogonadotropic hormone receptor (Homo sapiens, UniProt P22888). Briefly: Agonist activity at LSHR (unknown origin) by arrestin technology based assay. The format is functional.
Chain of Lutropin-choriogonadotropic hormone receptor (P22888 whole entry): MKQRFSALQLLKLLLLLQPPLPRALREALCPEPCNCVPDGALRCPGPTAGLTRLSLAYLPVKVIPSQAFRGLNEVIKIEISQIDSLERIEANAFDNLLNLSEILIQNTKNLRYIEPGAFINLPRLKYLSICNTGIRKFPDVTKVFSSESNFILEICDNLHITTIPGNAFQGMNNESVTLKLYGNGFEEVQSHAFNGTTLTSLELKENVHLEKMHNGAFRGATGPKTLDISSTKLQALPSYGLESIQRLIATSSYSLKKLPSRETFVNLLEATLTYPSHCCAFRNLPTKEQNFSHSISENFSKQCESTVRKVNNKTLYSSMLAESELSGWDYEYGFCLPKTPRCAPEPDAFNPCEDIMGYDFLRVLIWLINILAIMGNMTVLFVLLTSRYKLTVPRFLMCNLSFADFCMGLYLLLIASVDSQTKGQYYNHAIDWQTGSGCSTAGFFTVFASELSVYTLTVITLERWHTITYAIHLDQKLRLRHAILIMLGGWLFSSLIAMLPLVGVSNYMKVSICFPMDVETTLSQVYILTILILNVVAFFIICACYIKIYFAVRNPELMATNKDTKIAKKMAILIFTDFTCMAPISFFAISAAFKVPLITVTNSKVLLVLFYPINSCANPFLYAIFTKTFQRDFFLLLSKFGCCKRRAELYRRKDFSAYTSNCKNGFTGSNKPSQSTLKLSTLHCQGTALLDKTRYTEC
Data set [7] has as its target T3, Relaxin receptor 1 (Rattus norvegicus) (UniProt Q6R6I6).
T3 sequence (whole entry): T2 sequence (Q6R6I6 whole entry)
In words: Agonist activity at rat RXFP1 expressed in T-Rex-CHO-K1 cells assessed as stimulation of cAMP production by measuring maximal efficacy incubated for 60 mins by HTRF assay relative to control. It counts as functional, cell-based. Particulars: filed as agonist.

A short description of data set [8]: Protein binding in rat plasma assessed as free fraction at 5 uM incubated for 18 hrs by equilibrium dialysis based LC-MS/MS analysis. The format is ADME, cell-free.
Data set [9] concerns the target T3, Relaxin receptor 1 (Rattus norvegicus). Briefly: In vivo agonist activity at RXFP1 in Sprague-Dawley rat assessed as hemodynamic effect by measuring increase in heart rate at 1.5 mg/kg, iv administered via bolus followed by 9.0 mg/kg, iv administered via infusion for 3 hrs and measured 1 hrs post washout. It counts as functional, organism-based.
Data set [10] can be described thus: Solubility of compound in phosphate buffer at pH 6.5. The format is physicochemical.
Data set [11] in a line: Metabolic stability in Han Wistar rat hepatocytes assessed as unbound intrinsic clearance measured […] at 1 uM after 120 mins by LC-MS/MS analysis. The format is ADME, cell-based, Hepatocyte. The note with it: 2 h.

In brackets after ≈: the same amount, converted by molar mass. Activity calls are given as the source filed them. The rule behind the calls is not given here. Bounds are passed on as bounds.

Regarding `COc1cc(F)c(O[C@H]2CC[C@@](C)(C(=O)O)CC2)cc1C(=O)N[C@@H]1[C@H]2CC[C@H](C2)[C@@H]1C(=O)Nc1ccc(F)c(S(F)(F)(F)(F)F)c1`, the half-inhibitory concentration (IC50) in data set [1] came out at 17 µM; in data set [4], 68 µM; in data set [5] it was 21 µM. Moreover, the figures for the EC50 (on Relaxin receptor 1 [2]; at Relaxin receptor 1 [3]; in data set [6]) were < 0.0316 nM, 0.2 µM and 46 µM, respectively. In addition, the maximal effect (Emax) in data set [7] worked out at 139%. The fraction unbound at 18 h, 5 µM in [8] worked out at 0.0015. For the same compound, the outcome in [9] was Active. The solubility in data set [10] worked out at 0.13 µM (≈ 0.0887 µg/mL). The CL free in data set [11] stood at 2.4 µL/min.

These data come from ChEMBL document CHEMBL5518235, “Identification of Novel Series of Potent and Selective Relaxin Family Peptide Receptor 1 (RXFP1) Agonists” (J Med Chem, 2024).
